Measurements as given in the supplement of paper PMC8671470.

What was measured:
Details in all cases: 72 h
BV-173 [1] = tested on: BV-173
In short: (§1)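 Fifteen myeloid leukaemia lines in RPMI 1640 were treated for 72 h at 37 °C and 5% CO2 with five tenfold doses from 1 to 10,000 nM, in duplicate. ATP luminescence was normalised to vehicle and to a positive control at 10 µM, then fitted with a four-parameter log-logistic model. The IC50 came from these fits.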

HEL [2] = tested on: HEL
In short: as §1

HL-60 [3] = tested on: HL-60
In short: as §1

K-562 [4] = tested on: K-562
In short: as §1

KCL-22 [5] = tested on: KCL-22
In short: as §1

KG-1 [6] = tested on: KG-1
In short: as §1

KU-812 = tested on: KU-812
In short: as §1

LAMA-84 [7] = tested on: LAMA-84
In short: as §1

ML-2 [8] = tested on: ML-2
In short: as §1

MOLM-13 = tested on: MOLM-13
In short: as §1

MV4-11 [9] = tested on: MV4-11
In short: as §1

Mono-Mac-6 [10] = tested on: Mono-Mac-6
In short: as §1

NOMO-1 = tested on: NOMO-1
In short: as §1

SHI-1 [11] = tested on: SHI-1
In short: as §1

THP-1 = tested on: THP-1
In short: as §1

HL-60 [12] = assay: cell viability (% survival relative to DMSO control); higher = less cytotoxic
In short: (§2)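 For each screen, HL-60 cells in RPMI 1640 with 10% FBS carried either DMSO or 100 nM of one of three metabolic inhibitors while the full library was applied at five tenfold concentrations, 1–10,000 nM, in duplicate. Plates were 384-well and were kept 72 h at 37 °C, 5% CO2. Viability, measured by CellTiter-Glo, was normalised to wells with DMSO and with 10 μM proteasome inhibitor. Where area under the curve appears, it was fitted by four-parameter log-logistic models in drc and PharmacoGx.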

BV-173 [13] = assay: cell viability (% survival relative to DMSO control, bortezomib = 0%); higher = less cytotoxic
In short: (§3)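 Fifteen myeloid leukaemia cell lines were exposed to compounds at 1, 10, 100, 1000 or 10000 nM in 384-well plates for 72 h at 37 °C and 5% CO2. Viability was read by CellTiter-Glo luminescence and normalised, with vehicle as 100% and a 10 µM positive control as 0%. Values are percent survival averaged over duplicates.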

HEL [14] = assay: as above
In short: as §3

HL-60 [15] = assay: as above
In short: as §3

K-562 [16] = assay: as above
In short: as §3

KCL-22 [17] = assay: as above
In short: as §3

KG-1 [18] = assay: as above
In short: as §3

LAMA-84 [19] = assay: as above
In short: as §3

ML-2 [20] = assay: as above
In short: as §3

MV4-11 [21] = assay: as above
In short: as §3

Mono-Mac-6 [22] = assay: as above
In short: as §3

SHI-1 [23] = assay: as above
In short: as §3

HL-60 [24] = assay: area under dose-response curve (viability, 1 nM-10 uM) (fraction (0-1)); higher = more sensitive
In short: as §2

OC[C@H]1OC(O)C[C@@H](O)[C@@H]1O (some centres not stated) [2-deoxyglucose]
Details	IC50 (cell viability) [µM]
BV-173 [1]	> 10
HEL [2]	> 10
HL-60 [3]	> 10
K-562 [4]	> 10
KCL-22 [5]	> 10
KG-1 [6]	> 10
KU-812	> 10
LAMA-84 [7]	> 10
ML-2 [8]	> 10
MOLM-13	> 10
MV4-11 [9]	> 10
Mono-Mac-6 [10]	> 10
NOMO-1	> 10
SHI-1 [11]	> 10
THP-1	> 10

cell viability [%], HL-60 [12]
Details	0.001 µM	0.01 µM	0.1 µM	1 µM	10 µM
co-treatment: AZD3965 100 nM	107	110	103	103.1	103
co-treatment: DMSO vehicle	104	101	99.45	103.5	97.27
co-treatment: GSK2194069 100 nM	102	107	102	101	104
co-treatment: pictilisib 100 nM	102	109.7	99.6	104	108

Details	area under dose-response curve, co-treatment: AZD3965 100 nM	area under dose-response curve, co-treatment: DMSO vehicle	area under dose-response curve, co-treatment: GSK2194069 100 nM	area under dose-response curve, co-treatment: pictilisib 100 nM	cell viability, 1 nM [%]	cell viability, 10 nM [%]	cell viability, 100 nM [%]	cell viability, 1000 nM [%]	cell viability, 10000 nM [%]
BV-173 [13]	–	–	–	–	126	107	109	90.4	106
HEL [14]	–	–	–	–	123	113	112	93.3	95.1
HL-60 [15]	–	–	–	–	82.5	92	106	102	94.7
HL-60 [24]	< 0.0301	< 0.0301	< 0.0301	< 0.0301	–	–	–	–	–
K-562 [16]	–	–	–	–	107	117	94.2	101	99.6
KCL-22 [17]	–	–	–	–	110	107	107	90.6	104
KG-1 [18]	–	–	–	–	111	95.2	98.9	82.6	92.9
LAMA-84 [19]	–	–	–	–	107	114	95.6	86.3	96.8
ML-2 [20]	–	–	–	–	101	110	102	89.4	96.1
MV4-11 [21]	–	–	–	–	102	91.4	100	92	110
Mono-Mac-6 [22]	–	–	–	–	65.6	99.3	102	89.4	99.2
SHI-1 [23]	–	–	–	–	112	105	105	93.4	98.3

O=C(C(=O)c1ccc(Br)cc1)c1ccc(Br)cc1 [4,4'-Dibromobenzil]
Details	IC50 (cell viability) [µM]
BV-173 [1]	> 10
HEL [2]	> 10
HL-60 [3]	> 10
K-562 [4]	> 10
KCL-22 [5]	> 10
KG-1 [6]	> 10
KU-812	> 10
LAMA-84 [7]	> 10
ML-2 [8]	> 10
MOLM-13	> 10
MV4-11 [9]	> 10
Mono-Mac-6 [10]	> 10
NOMO-1	> 10
SHI-1 [11]	> 10
THP-1	> 10

cell viability [%], HL-60 [12]
Details	0.001 µM	0.01 µM	0.1 µM	1 µM	10 µM
co-treatment: AZD3965 100 nM	105	105	99.5	94.7	102
co-treatment: DMSO vehicle	102	100	99.8	96.7	101
co-treatment: GSK2194069 100 nM	105	107.3	105.4	98.1	96.28
co-treatment: pictilisib 100 nM	109	105	95.5	98.3	101.7

Details	area under dose-response curve, co-treatment: AZD3965 100 nM	area under dose-response curve, co-treatment: DMSO vehicle	area under dose-response curve, co-treatment: GSK2194069 100 nM	area under dose-response curve, co-treatment: pictilisib 100 nM	cell viability, 1 nM [%]	cell viability, 10 nM [%]	cell viability, 100 nM [%]	cell viability, 1000 nM [%]	cell viability, 10000 nM [%]
BV-173 [13]	–	–	–	–	104	117	112	105	117
HEL [14]	–	–	–	–	96.7	96.8	120	114	115
HL-60 [15]	–	–	–	–	91.8	99.6	93.4	98.1	88.5
HL-60 [24]	< 0.0301	< 0.0301	< 0.0301	< 0.0301	–	–	–	–	–
K-562 [16]	–	–	–	–	101	90.3	114	100	112
KCL-22 [17]	–	–	–	–	95.4	87.2	94.9	101	95.5
KG-1 [18]	–	–	–	–	95.5	98.6	101	100	91
LAMA-84 [19]	–	–	–	–	98.8	101	109	106	96.9
ML-2 [20]	–	–	–	–	91.7	99.9	92.3	100	107
MV4-11 [21]	–	–	–	–	101	92.1	107	85.3	89.3
Mono-Mac-6 [22]	–	–	–	–	109	101	94	109	97.9
SHI-1 [23]	–	–	–	–	92.4	101	90	103	98.4

NS(=O)(=O)c1ccc(NC(=O)Cc2ccccc2)cc1 [4-(2-Phenylacetamido)Benzenesulfonamide]
Details	IC50 (cell viability) [µM]
BV-173 [1]	> 10
HEL [2]	> 10
HL-60 [3]	> 10
K-562 [4]	> 10
KCL-22 [5]	> 10
KG-1 [6]	> 10
KU-812	> 10
LAMA-84 [7]	> 10
ML-2 [8]	> 10
MOLM-13	> 10
MV4-11 [9]	> 10
Mono-Mac-6 [10]	> 10
NOMO-1	> 10
SHI-1 [11]	> 10
THP-1	> 10

cell viability [%], HL-60 [12]
Details	0.001 µM	0.01 µM	0.1 µM	1 µM	10 µM
co-treatment: AZD3965 100 nM	97.2	100	99.29	101	99.6
co-treatment: DMSO vehicle	92.5	94.4	100	100	98.28
co-treatment: GSK2194069 100 nM	104	99.5	99.14	99.4	103
co-treatment: pictilisib 100 nM	101	85.2	94	97.6	92.9

Details	area under dose-response curve, co-treatment: AZD3965 100 nM	area under dose-response curve, co-treatment: DMSO vehicle	area under dose-response curve, co-treatment: GSK2194069 100 nM	area under dose-response curve, co-treatment: pictilisib 100 nM	cell viability, 1 nM [%]	cell viability, 10 nM [%]	cell viability, 100 nM [%]	cell viability, 1000 nM [%]	cell viability, 10000 nM [%]
BV-173 [13]	–	–	–	–	118	94.8	105	114	92.9
HEL [14]	–	–	–	–	106	108	78.6	99	106
HL-60 [15]	–	–	–	–	162	97.6	115	106	89.7
HL-60 [24]	< 0.0301	< 0.0301	< 0.0301	< 0.0301	–	–	–	–	–
K-562 [16]	–	–	–	–	100	99.4	103	112	97.2
KCL-22 [17]	–	–	–	–	99.8	102	83.9	108	93.9
KG-1 [18]	–	–	–	–	99	106	85.8	90	103
LAMA-84 [19]	–	–	–	–	97.4	104	110	97.4	102
ML-2 [20]	–	–	–	–	98.7	102	95.6	108	102
MV4-11 [21]	–	–	–	–	108	109	95.7	91.3	86.6
Mono-Mac-6 [22]	–	–	–	–	87.8	108	95.9	102	96.9
SHI-1 [23]	–	–	–	–	106	105	91.2	102	102
